Measured values from patent US7981936B2, “Crystalline ACAT inhibitor” (Graceway Pharmaceuticals, LLC, priority 2005, dated 2011).

For `CC(C)c1cccc(C(C)C)c1NC(=O)CC(=O)N(Cc1ccccc1)C(C)C` [Form A polymorph, N-benzyl-N′-(2,6-diisopropyl-phenyl)-N-isopropyl-malonamide], which melting point is on record?
The melting point was 102.3 °C.
